Consider twelve compounds from ChEMBL document CHEMBL1150435, “Inhibition of antennal esterases of the egyptian armyworm Spodoptera littoralis by trifluoromethyl ketones” (Bioorg Med Chem Lett, 1993).

One experiment relates to Spodoptera littoralis. Nature of the experiment: Tested for its ability to inhibit antennal esterases of Spodoptera littoralis without pre-incubation at 63 uM concentration.
Experiment [1] can be described thus: Tested for its ability to inhibit antennal esterases of Spodoptera littoralis without pre-incubation.
A short description of experiment [2]: Tested for the ability to inhibit antennal esterases of Spodoptera littoralis with pre-incubation.
Experiment [3] can be described thus: Compound was tested for competitive inhibition of antennal esterases of Spodoptera littoralis.

With `CCCCCCCCCCCCCCCCCC(=O)C(F)(F)F`, the inhibition in the experiment with Spodoptera littoralis is 44%.

Take `CCCCCCCCCCCCC(=O)C(F)(F)F`: the concentration for half-maximal inhibition (IC50) in experiment [1] was determined as 10.6 µM; in experiment [2], 1.16 µM. The compound further displayed a Ki in experiment [3] of 29.8 µM.

Take `CCCCCCCCCCCCCCC(=O)C(F)(F)F`: the half-maximal inhibitory concentration (IC50) in experiment [2] came out at 18.4 µM.

For `O=C(CCc1ccccc1)C(F)(F)F`, the inhibition in the experiment with Spodoptera littoralis came to 43%.

In the experiment with Spodoptera littoralis, `O=C(Cc1ccccc1)C(F)(F)F` had an inhibition of 36%.

With `O=C(c1ccc2ccccc2c1)C(F)(F)F`, the IC50 in experiment [1] stood at 7.9 µM; in experiment [2] it was 11.4 µM. The same compound registered a Ki in experiment [3] of 249 µM.

Compound `CCCCCCCCCCCCCCCCC(=O)C(F)(F)F` gave an inhibition with Spodoptera littoralis of 50%.

In turn, `O=C(c1ccccc1)C(F)(F)F` displayed an inhibition in the experiment with Spodoptera littoralis of 31%. This compound displayed a concentration for half-maximal inhibition (IC50) in experiment [2] of 40.7 µM.

The compound `CCCCCCCCCCC(=O)C(F)(F)F` yielded an IC50 in experiment [2] of 19.3 µM.

Consider `CCCCCCCCSCC(=O)C(F)(F)F`, for which the IC50 in experiment [1] is 3.7 µM; in experiment [2], 0.55 µM. This compound came in with a Ki in experiment [3] of 25.1 µM.

Turning to `CCCCCCCCCCCCCC(=O)C(F)(F)F`, the results for the IC50 in experiment [1] and in experiment [2] were 11 µM and 4.4 µM, respectively.

The compound `O=C(c1cccc2ccccc12)C(F)(F)F` registered an inhibition with Spodoptera littoralis of 38%.

One may read the inhibition as the share of the control response that was lost under treatment. A word on the IC50: it is the concentration needed to halve the response being measured. A low value points to greater potency in that assay. As a reminder, the Ki is the equilibrium dissociation constant of an inhibitor or competing ligand from its target. A higher Ki goes with lower affinity.
